Assays:
[1] = Nonclinical toxicity study, mouse; assay type: in vivo
Procedure: (§1) The selection of the starting dose and regimen was based on the nonclinical toxicology and PK results in accordance with the ICH S9 Guidance. Results from nonclinical toxicity studies indicate the STD10 of PF-07104091 in mouse was 150 mg/kg after BID oral administration. The human equivalent dose for the STD10 in mouse is approximately 729 mg BID (assuming a body weight of 60 kg). Per ICH-S9 guidance, one-tenth of the STD10 can be considered the appropriate starting dose. Given the predicted human t % of approximately 4 hours, the starting dose has been selected to be 75 mg BID. The human AUC0-12 hr of PF-07104091 at the proposed starting oral dose of 75 mg BID is predicted to be ˜6.5% of the observed AUC0-12 hr at the STD10 in mouse (150 mg/kg BID) and ˜80% of the observed AUC0-12 hr at the HNSTD in dog (15 mg/kg BID).

[2] = system: MCF7 cells; assay: Proliferation inhibition, MCF7; assay type: cell-based; conditions: Homo sapiens, 168 h, treated for 7 days
Procedure: (§2) Anti-proliferative activity was measured in cells treated for 7 days with PF-07104091 in OVCAR3 cells, Rb mutant NCI-H526 SCLC cells, and both HR-positive HER2-negative MCF7 and the subline MCF7-PalboR (resistant to palbociclib).

[3] = system: HCC1428; assay: In vivo efficacy, HCC1428 breast cancer model; set-up: species or system mice; conditions: Day 42, 150 mg/kg BID PO, 150 mg/kg
Procedure: The HCC1428 model was established by implanting passage 4 tumor fragments into recipient mice. To establish the HCC1428 donor mice, tumor cells (5×10^6 cell/mouse with 50% Cultrex® Basement Membrane Matrix) were subcutaneously implanted in female NSG mice. […] All mice received treatment continuously until Day 42. TGI was assessed on Day 42 post first dose.

[4] = system: OVCAR3 cells; assay: Proliferation inhibition, OVCAR3; assay type: cell-based; conditions: Homo sapiens, OVCAR-3, 168 h, treated for 7 days
Procedure: as §2

[5] = Predicted human pharmacokinetics for starting dose
Procedure: as §1

[6] = Nonclinical toxicity study, dog; assay type: in vivo
Procedure: as §1

[7] = system: MCF7-PalboR cells; assay: Cell cycle distribution and DNA synthesis, MCF7-PalboR; assay type: cell-based; conditions: 72-hour treatment with 300 nM
Procedure: The effect of PF-07104091 on cell cycle distribution and DNA synthesis was determined following 72-hour treatment with 300 nM PF-07104091.

[8] = In vivo efficacy, OVCAR3 ovarian cancer tumor model; conditions: female, mouse, NSG mice, po, BID, read-out: maximum tolerated dose level
Procedure: (§3) Female NSG (Jackson Lab) or Nu/nu (CRL) were subcutaneously implanted with tumor cells or fragments (8 mm^3 to 27 mm^3) into the dorsal region. For the MCF7 study, mice were supplemented with estrogen (sc implanted, 17β-estradiol, 0.36 mg, 90-day release pellet, Innovative Research of America, cat no. NE-121).
To establish the OVCAR3 model, tumor cells (5×10^6 cells/mouse with 50% Cultrex® Basement Membrane Matrix) were subcutaneously implanted in female NSG mice. […] PF-07104091 was administered (p.o.) BID (7 hr apart). All mice received treatment continuously for 21 days. TGI was assessed on Day 21 post first dose (or Day 66 post tumor cell implant).

[9] = system: NCI-H526 Model; assay: In vivo efficacy, NCI-H526 small cell lung cancer model; set-up: species or system mice; conditions: Day 15
Procedure: as §3
To establish the NCI-H526 model, tumor cells (4×10^6 cells/mouse with 50% Cultrex® Basement Membrane Matrix) were subcutaneously implanted in female Nu/nu mice. […] PF-07104091, Palbociclib at 10 mg/kg and CDK 2/4/6 inhibitor were administered (p.o.) BID (7 hr apart). TGI was assessed on Day 15 post first dose (or Day 20 post tumor cell implant).

[10] = system: MCF7 Cells; assay: Combination cell proliferation assay, MCF7; assay type: cell-based, human
Procedure: (§4) The combination effects of PF-07104091 with palbociclib were evaluated in a cell proliferation assay with MCF7 and T47D BC cell lines. […] Drug combinations were analyzed using the Dose Equivalence Principle, and the Loewe Volume score. When modeling synergy using the Dose Equivalence Principle, the Loewe Volume score for the combination compounds should be greater than the compound self-cross controls, and the Combination Index score for the combination compounds should be less than compound self-cross controls. […] Furthermore, the isobolograms set to an anti-proliferation threshold at 70% confirm a synergistic response.

[11] = system: NCI-H526 SCLC cells; assay: Proliferation inhibition, NCI-H526; assay type: cell-based; conditions: Homo sapiens, 168 h, treated for 7 days
Procedure: as §2

[12] = system: T-47D Cells; assay: Combination cell proliferation assay, T47D; assay type: cell-based, human
Procedure: as §4

With `COCc1cc(C(=O)Nc2cc([C@H]3CC[C@@H](OC(=O)NC(C)C)C3)[nH]n2)n(C)n1` [PF-07104091, (1R,3S)-3-[3-({[3-(methoxymethyl)-1-methyl-1H-pyrazol-5-yl]carbonyl}amino)-1H-pyrazol-5-yl]cyclopentyl propan-2-ylcarbamate] the “human equivalent dose for the STD10 in mouse” value ([1]; assuming a body weight of 60 kg) was “approximately 729 mg BID”, the STD10 ([1]; mouse, BID oral administration) was 150 mg/kg and the IC50 [2] was 252 nM. For the same compound, the TGI % [3] was 95%, the IC50 [4] was 118 nM and the “predicted human AUC0-12 hr as % of observed AUC0-12 hr at the HNSTD in dog” value ([5]; human 75 mg BID oral vs dog 15 mg/kg BID) was about 80%. For the same compound, the “predicted human AUC0-12 hr as % of observed AUC0-12 hr at the STD10 in mouse” value ([5]; human 75 mg BID oral vs mouse 150 mg/kg BID) was about 6.5%, the “predicted human t %” value ([5]; human, predicted) was “approximately 4 hours” and the HNSTD [6] was 15 mg/kg BID. The cell cycle arrest [7] was “significant G2/M arrest”, the “S phase (cell cycle distribution)” value ([7]; p≤0.05 versus vehicle) was “Significant S phase reduction” and the MTD at 21 days [8] was 175 mg/kg. For the same compound, the TGI % ([9]; 25 mg/kg BID PO) was 44%, the TGI % ([9]; 75 mg/kg BID PO) was 45% and the “Loewe Volume” value [10] was −0.08. For the same compound, the “Best CI” value ([10]; Best CI Level 70) was 1.04, the IC50 [11] was 136 nM and the “Loewe Volume” value [12] was 0.01. For the same compound, the “Best CI” value ([12]; Best CI Level 70) was 0.95.

From patent US20250127759A1, “METHODS AND DOSING REGIMENS COMPRISING A CDK2 INHIBITOR FOR THE TREATMENT OF CANCER” (PFIZER INC., priority 2021, published 2025)
